Experimental data taken from patent publication US6656932B2, “Benzo thiadiazine matrix metalloproteinase inhibitors” (Warner-Lambert Company, priority 2001, dated 2003).

What was measured:
Type in all cases: biochemical
[1] = molecular target: T1, MMP-1FL (full-length interstitial collagenase) (Homo sapiens, UniProt P03956); experiment: Thiopeptolide hydrolysis assay, MMP-1FL; settings: Table 2; thiopeptolide substrate, HEPES pH 7.0; read-out: IC50 (μM) Versus Certain MMPs: MMP01 (FL)
T1 sequence (P03956 100-469): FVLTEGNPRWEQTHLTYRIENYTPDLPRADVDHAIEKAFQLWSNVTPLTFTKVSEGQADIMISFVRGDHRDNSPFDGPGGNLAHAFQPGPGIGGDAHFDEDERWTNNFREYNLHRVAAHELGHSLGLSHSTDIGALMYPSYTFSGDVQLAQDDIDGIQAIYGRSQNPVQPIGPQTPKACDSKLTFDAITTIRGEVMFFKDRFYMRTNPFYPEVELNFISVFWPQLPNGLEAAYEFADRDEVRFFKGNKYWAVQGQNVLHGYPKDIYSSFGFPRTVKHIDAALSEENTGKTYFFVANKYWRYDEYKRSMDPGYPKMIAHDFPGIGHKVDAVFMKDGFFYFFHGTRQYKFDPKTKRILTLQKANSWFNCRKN
Source text: (§1) The invention compounds of Formula I have been evaluated in standard assays for their ability to inhibit the catalytic activity of various MMP enzymes.
(§2) Thiopeptolide substrates show virtually no decomposition or hydrolysis at or below neutral pH in the absence of a matrix metalloproteinase enzyme.
(§3) Several representative compounds have been evaluated for their ability to inhibit various matrix metalloproteinase enzymes.

[2] = molecular target: T2, MMP-2FL (full-length Gelatinase A) (Homo sapiens, UniProt P08253); experiment: Thiopeptolide hydrolysis assay, MMP-2FL; settings: Table 2; thiopeptolide substrate, HEPES pH 7.0; read-out: IC50 (μM) Versus Certain MMPs: MMP02 (FL)
T2 sequence (P08253 110-660): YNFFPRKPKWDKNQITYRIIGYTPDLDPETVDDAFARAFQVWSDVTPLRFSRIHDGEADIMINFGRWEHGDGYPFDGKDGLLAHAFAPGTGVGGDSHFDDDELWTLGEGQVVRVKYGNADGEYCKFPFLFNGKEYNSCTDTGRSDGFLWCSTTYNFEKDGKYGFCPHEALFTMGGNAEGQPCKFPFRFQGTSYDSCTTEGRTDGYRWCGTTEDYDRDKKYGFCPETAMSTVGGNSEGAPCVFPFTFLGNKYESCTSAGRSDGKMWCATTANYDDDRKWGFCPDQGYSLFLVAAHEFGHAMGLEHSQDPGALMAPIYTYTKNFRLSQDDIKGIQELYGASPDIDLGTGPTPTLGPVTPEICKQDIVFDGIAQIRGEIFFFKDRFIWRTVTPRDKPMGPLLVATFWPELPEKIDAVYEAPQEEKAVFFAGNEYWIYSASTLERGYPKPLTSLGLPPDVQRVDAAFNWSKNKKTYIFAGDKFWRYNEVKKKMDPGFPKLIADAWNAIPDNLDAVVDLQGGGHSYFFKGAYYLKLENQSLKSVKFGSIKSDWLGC
Source text: as §1, §2, §3

[3] = molecular target: MMP-3CD (catalytic domain of stromelysin-1) (Homo sapiens, UniProt P08254); experiment: Thiopeptolide hydrolysis assay, MMP-3CD; settings: Table 2; thiopeptolide substrate, MES buffer pH 6.0; read-out: IC50 (μM) Versus Certain MMPs: MMP03 (CD)
Experimental: as §1, §2, §3
It should be appreciated that the assay buffer used with MMP-3CD was 50 mM of N-morpholinoethane sulfonate (“MES”) at pH 6.0 rather than the HEPES buffer at pH 7.0 described above.

[4] = molecular target: T3, MMP-7FL (full-length matrilysin) (Homo sapiens, UniProt P09237); experiment: Thiopeptolide hydrolysis assay, MMP-7FL; settings: Table 2; thiopeptolide substrate, HEPES pH 7.0; read-out: IC50 (μM) Versus Certain MMPs: MMP07 (FL)
T3 sequence (P09237 95-267): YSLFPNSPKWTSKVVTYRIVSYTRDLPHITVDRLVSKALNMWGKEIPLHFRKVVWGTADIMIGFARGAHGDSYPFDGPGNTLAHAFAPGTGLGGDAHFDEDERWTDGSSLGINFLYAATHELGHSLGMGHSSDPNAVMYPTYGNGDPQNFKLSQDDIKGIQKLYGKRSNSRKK
Source text: as §1, §2, §3

[5] = molecular target: MMP-9FL (full-length Gelatinase B) (Homo sapiens, UniProt P14780); experiment: Thiopeptolide hydrolysis assay, MMP-9FL; settings: Table 2; thiopeptolide substrate, HEPES pH 7.0; read-out: IC50 (μM) Versus Certain MMPs: MMP09 (FL)
Source text: as §1, §2, §3

[6] = molecular target: MMP-13CD (catalytic domain of collagenase 3) (Homo sapiens, UniProt P45452); experiment: Thiopeptolide hydrolysis assay, MMP-13CD; settings: Table 2; thiopeptolide substrate, HEPES pH 7.0; read-out: IC50 (μM) Versus Certain MMPs: MMP13 (CD)
Source text: as §1, §2, §3

[7] = molecular target: MMP-14CD (catalytic domain of MMP-14) (Homo sapiens, UniProt P50281); experiment: Thiopeptolide hydrolysis assay, MMP-14CD; settings: Table 2; thiopeptolide substrate, HEPES pH 7.0; read-out: IC50 (μM) Versus Certain MMPs: MMP14 (CD)
Source text: as §1, §2, §3

Sequence of MMP-9FL (full-length Gelatinase B) (P14780 94-707, species assumed): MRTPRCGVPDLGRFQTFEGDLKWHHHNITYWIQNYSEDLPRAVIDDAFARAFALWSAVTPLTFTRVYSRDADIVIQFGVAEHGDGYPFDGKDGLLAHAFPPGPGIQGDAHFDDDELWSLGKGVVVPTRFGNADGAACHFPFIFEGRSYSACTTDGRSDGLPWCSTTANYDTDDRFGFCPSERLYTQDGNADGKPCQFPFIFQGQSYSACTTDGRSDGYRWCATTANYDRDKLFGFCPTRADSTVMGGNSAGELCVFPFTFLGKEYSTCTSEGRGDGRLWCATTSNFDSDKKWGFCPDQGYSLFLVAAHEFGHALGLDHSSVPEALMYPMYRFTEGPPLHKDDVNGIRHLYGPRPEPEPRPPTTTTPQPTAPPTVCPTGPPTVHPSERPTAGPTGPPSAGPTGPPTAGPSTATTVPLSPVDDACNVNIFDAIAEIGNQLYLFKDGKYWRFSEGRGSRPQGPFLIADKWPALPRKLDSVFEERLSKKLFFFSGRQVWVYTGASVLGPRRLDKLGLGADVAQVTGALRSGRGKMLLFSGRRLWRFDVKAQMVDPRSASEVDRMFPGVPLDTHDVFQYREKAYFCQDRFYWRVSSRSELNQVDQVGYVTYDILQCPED
Sequence of MMP-3CD (catalytic domain of stromelysin-1) (P08254 100-272 limits assumed): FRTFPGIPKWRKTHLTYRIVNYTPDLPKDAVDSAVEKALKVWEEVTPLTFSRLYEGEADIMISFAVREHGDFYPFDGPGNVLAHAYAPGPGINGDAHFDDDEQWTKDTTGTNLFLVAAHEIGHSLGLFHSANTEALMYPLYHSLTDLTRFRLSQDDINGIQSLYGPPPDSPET

IC50 [1] | IC50 [2] | IC50 [3] | IC50 [4] | IC50 [5] | IC50 [6] | IC50 [7] | SMILES
> 30 µM | > 100 µM | > 30 µM | 51 µM | > 30 µM | 0.17 µM | > 30 µM | COc1ccc(CNC(=O)c2ccc3c(c2)S(=O)(=O)N(Cc2ccccc2)C(=O)N3C)cc1 [Example 5, 2-Benzyl-4-methyl-1,1,3-trioxo-1,2,3,4-tetrahydro-1l^6-benzo[1,2,4]thiadiazine-7-carboxylic acid 4-methoxy-benzylamide]
> 100 µM | > 100 µM | > 100 µM | > 100 µM | > 100 µM | 0.066 µM | > 100 µM | CN1C(=O)N(Cc2ccc(C(=O)O)cc2)S(=O)(=O)c2cc(C(=O)NCc3ccccc3)ccc21 [Example 11, 4-(7-Benzylcarbamoyl-4-methyl-1,1,3-trioxo-3,4-dihydro-H-1l^6-benzo[1,2,4]thiadiazin-2-ylmethyl)-benzoic Acid]
> 100 µM | > 100 µM | 64 µM | > 100 µM | > 100 µM | 0.011 µM | > 100 µM | COc1ccc(CNC(=O)c2ccc3c(c2)S(=O)(=O)N(Cc2ccc(C(=O)O)cc2)C(=O)N3C)cc1 [Example 13, 4-[7-(4-Methoxy-benzylcarbamoyl)-4-methyl-1,1,3-trioxo-3,4-dihydro-1H-1l^6-benzo[1,2,4]thiadiazin-2-ylmethyl]-benzoic Acid]
